Experiments:
[1] = Nebulized particle size distribution by Anderson Cascade Impactor, Y design, drug suspension and different heliox flow rates; assay type: physicochemical
Experimental: Additional tests were performed with the ACI described in Example 3 in order to assess the device's ability to nebulize a liquid drug suspension and to assess various heliox flow rate combinations. […]

asthma patients = test: Pilot study, albuterol nebulized with heliox vs oxygen through open mouthpiece and T-piece system, spirometry; assay type: in vivo, human; conditions: open mouthpiece and T-piece adapter system
Experimental: A pilot study was conducted using an open system, including a mouthpiece and T-piece adapter ([…], Allegiance Healthcare Corp., McGaw Park, Ill.), to nebulize albuterol.

[2] = test system: adult patients with severe acute exacerbation of asthma; test: Same randomized study: vital signs, pulse oximetry, hospital admissions; assay type: in vivo, human; conditions: for % change HR post neb 1 / % change HR post neb 2 / % change HR post neb 3: mean ± SD; for Hospital admission rate: P=0.81
From the text: The heliox delivery system consisted of a facemask connected to a Y-piece with the nebulizer (Airlife™ Misty-Neb™ Nebulizer) on one limb and a non-rebreather bag on the other limb (as shown in FIG. 1). Heliox flow to the nebulizer was set at 10 liters/minute (via an oxygen calibrated flow meter thus equivalent to 18 L/min Heliox flow). A separate flow of 10 liters/minute of heliox (via an oxygen calibrated flow meter thus equivalent to 18 L/min Heliox flow) was delivered to the non-rebreather bag. […] Each treatment continued until the nebulizer was dry—a period of approximately ten minutes, followed by a fifteen minute washout period. The total time for the study was approximately 90 minutes. Corticosteroid therapy for asthma exacerbations was directed by the emergency room physicians, who were not directly involved in the study.
Demographic data, chronic asthma medications, emergency room corticosteroid administration, vital signs (heart rate, mean arterial pressure, respiratory rate), oxygen saturation by pulse oximetry, emergency room length of stay and hospital admissions from the emergency room were recorded for all patients. Data are expressed as mean±SD when normally distributed and median (interquartile range) when not normally distributed. Interval data were compared using a two-tailed Student's t test or Mann Whitney U test according to normality of distribution, categorical data were compared using Chi square or Fisher Exact test when appropriate. […] The Student-Newman-Keuls test was used to compare differences between heliox and control groups after each nebulization treatment when appropriate. […] A 25% difference in percent change in FEV1 between the control and heliox groups was considered clinically important. Using a standard deviation of 28% (based on preliminary work), an a error of 0.05 and a β error of 0.20, it was estimated that a total of 42 patients (21 in each group) would be needed to avoid a type II error. […] In this situation, a P value of <0.0167 was considered to indicate statistical significance.

[3] = 6-6 lpm heliox (nebulizer-side port)
[4] = 10-10 lpm heliox (nebulizer-side port)
[5] = 10-18 lpm heliox (nebulizer-side port)
[6] = 18-0 lpm heliox (nebulizer-side port)
[7] = 18-10 lpm heliox (nebulizer-side port)
[8] = trial 6-6: heliox 6 L/min nebulizer, 6 L/min side port
[9] = trial 10-10: heliox 10 L/min nebulizer, 10 L/min side port
[10] = trial 10-18: heliox 10 L/min nebulizer, 18 L/min side port
[11] = trial 18-0: heliox 18 L/min nebulizer, 0 L/min side port
[12] = trial 18-10: heliox 18 L/min nebulizer, 10 L/min side port

Which “0.7 ≦ Mean Fraction < 5.8 μm” value [1, 3] does the source give for `CC(C)(C)NCC(O)c1ccc(O)c(CO)c1` (stereo not drawn) [albuterol] here?
Its value is 0.755.

What about the “Mean Fraction < 0.7 μm” value [1, 3] of the same compound?
The value was 0.112.

What about the “Mean Fraction ≧ 5.8 μm” value [1, 3] of the same compound?
Its value is 0.134.

What about the “0.7 ≦ Mean Fraction < 5.8 μm” value [1, 4] of the same compound?
Its value is 0.773.

What about the “Mean Fraction < 0.7 μm” value [1, 4] of the same compound?
Its value is 0.159.

What about the “Mean Fraction ≧ 5.8 μm” value [1, 4] of the same compound?
Its value is 0.068.

And the “0.7 ≦ Mean Fraction < 5.8 μm” value [1, 5]?
Its value is 0.626.

What about the “Mean Fraction < 0.7 μm” value [1, 5] of the same compound?
The value was 0.306.

What about the “Mean Fraction ≧ 5.8 μm” value [1, 5] of the same compound?
The value was 0.068.

And the “0.7 ≦ Mean Fraction < 5.8 μm” value [1, 6]?
The value was 0.658.

What about the “Mean Fraction < 0.7 μm” value [1, 6] of the same compound?
Its value is 0.224.

And the “Mean Fraction ≧ 5.8 μm” value [1, 6]?
The value was 0.118.

And the “0.7 ≦ Mean Fraction < 5.8 μm” value [1, 7]?
The value was 0.609.

What about the “Mean Fraction < 0.7 μm” value [1, 7] of the same compound?
The value was 0.317.

And the “Mean Fraction ≧ 5.8 μm” value [1, 7]?
Its value is 0.075.

What about the “Fraction, Adapter” value [1, 8] of the same compound?
The value was 0.033.

And the “Fraction, Collar” value [1, 8]?
The value was 0.034.

And the “Fraction, Filter (cut size <0.40 μm)” value [1, 8]?
The value was 0.045.

What about the “Fraction, Stage 0 (cut size 9.00 μm, midpt 10.70 μm)” value [1, 8] of the same compound?
Its value is 0.023.

And the “Fraction, Stage 1 (cut size 5.80 μm, midpt 7.22 μm)” value [1, 8]?
The value was 0.015.

What about the “Fraction, Stage 2 (cut size 4.70 μm, midpt 5.22 μm)” value [1, 8] of the same compound?
The value was 0.013.

What about the “Fraction, Stage 3 (cut size 3.30 μm, midpt 3.94 μm)” value [1, 8] of the same compound?
The value was 0.042.

What about the “Fraction, Stage 4 (cut size 2.10 μm, midpt 2.63 μm)” value [1, 8] of the same compound?
The value was 0.171.

And the “Fraction, Stage 6 (cut size 0.70 μm, midpt 0.88 μm)” value [1, 8]?
Its value is 0.130.

And the “Fraction, Stage 7 (cut size 0.40 μm, midpt 0.53 μm)” value [1, 8]?
Its value is 0.067.

And the “Fraction, Tee Piece” value [1, 8]?
The value was 0.015.

And the “Fraction, Throat (USP) (cut size >9.00 μm, midpt 24.49 μm)” value (from here on “Fraction, Throat (USP)”) [1, 8]?
The value was 0.013.

What about the “Fraction, Adapter” value [1, 9] of the same compound?
The value was 0.018.

What about the “Fraction, Collar” value [1, 9] of the same compound?
The value was 0.018.

And the “Fraction, Filter (cut size <0.40 μm)” value [1, 9]?
Its value is 0.053.

What about the “Fraction, Stage 0 (cut size 9.00 μm, midpt 10.70 μm)” value [1, 9] of the same compound?
Its value is 0.012.

And the “Fraction, Stage 1 (cut size 5.80 μm, midpt 7.22 μm)” value [1, 9]?
Its value is 0.011.

What about the “Fraction, Stage 2 (cut size 4.70 μm, midpt 5.22 μm)” value [1, 9] of the same compound?
The value was 0.002.

And the “Fraction, Stage 4 (cut size 2.10 μm, midpt 2.63 μm)” value [1, 9]?
Its value is 0.171.

What about the “Fraction, Stage 6 (cut size 0.70 μm, midpt 0.88 μm)” value [1, 9] of the same compound?
The value was 0.202.

What about the “Fraction, Stage 7 (cut size 0.40 μm, midpt 0.53 μm)” value [1, 9] of the same compound?
Its value is 0.106.

What about the “Fraction, Tee Piece” value [1, 9] of the same compound?
Its value is 0.009.

What about the “Fraction, Throat (USP)” value [1, 9] of the same compound?
Its value is 0.002.

What about the “Fraction, Adapter” value [1, 10] of the same compound?
The value was 0.015.

And the “Fraction, Collar” value [1, 10]?
The value was 0.011.

What about the “Fraction, Filter (cut size <0.40 μm)” value [1, 10] of the same compound?
Its value is 0.113.

And the “Fraction, Stage 0 (cut size 9.00 μm, midpt 10.70 μm)” value [1, 10]?
The value was 0.011.

What about the “Fraction, Stage 1 (cut size 5.80 μm, midpt 7.22 μm)” value [1, 10] of the same compound?
Its value is 0.006.

And the “Fraction, Stage 2 (cut size 4.70 μm, midpt 5.22 μm)” value [1, 10]?
The value was 0.007.

And the “Fraction, Stage 3 (cut size 3.30 μm, midpt 3.94 μm)” value [1, 10]?
The value was 0.008.

And the “Fraction, Stage 4 (cut size 2.10 μm, midpt 2.63 μm)” value [1, 10]?
Its value is 0.077.

What about the “Fraction, Stage 6 (cut size 0.70 μm, midpt 0.88 μm)” value [1, 10] of the same compound?
Its value is 0.232.

What about the “Fraction, Stage 7 (cut size 0.40 μm, midpt 0.53 μm)” value [1, 10] of the same compound?
Its value is 0.192.

What about the “Fraction, Tee Piece” value [1, 10] of the same compound?
The value was 0.024.

What about the “Fraction, Throat (USP)” value [1, 10] of the same compound?
The value was 0.001.

What about the “Fraction, Adapter” value [1, 11] of the same compound?
The value was 0.027.

What about the “Fraction, Collar” value [1, 11] of the same compound?
The value was 0.011.

And the “Fraction, Filter (cut size <0.40 μm)” value [1, 11]?
Its value is 0.088.

What about the “Fraction, Stage 0 (cut size 9.00 μm, midpt 10.70 μm)” value [1, 11] of the same compound?
The value was 0.026.

What about the “Fraction, Stage 1 (cut size 5.80 μm, midpt 7.22 μm)” value [1, 11] of the same compound?
Its value is 0.047.

And the “Fraction, Stage 2 (cut size 4.70 μm, midpt 5.22 μm)” value [1, 11]?
Its value is 0.013.

And the “Fraction, Stage 3 (cut size 3.30 μm, midpt 3.94 μm)” value [1, 11]?
Its value is 0.029.

What about the “Fraction, Stage 4 (cut size 2.10 μm, midpt 2.63 μm)” value [1, 11] of the same compound?
Its value is 0.124.

What about the “Fraction, Stage 6 (cut size 0.70 μm, midpt 0.88 μm)” value [1, 11] of the same compound?
Its value is 0.184.

What about the “Fraction, Stage 7 (cut size 0.40 μm, midpt 0.53 μm)” value [1, 11] of the same compound?
The value was 0.137.

What about the “Fraction, Tee Piece” value [1, 11] of the same compound?
Its value is 0.005.

And the “Fraction, Throat (USP)” value [1, 11]?
Its value is 0.002.

And the “Fraction, Adapter” value [1, 12]?
Its value is 0.009.

And the “Fraction, Collar” value [1, 12]?
Its value is 0.012.

And the “Fraction, Filter (cut size <0.40 μm)” value [1, 12]?
Its value is 0.106.

And the “Fraction, Stage 0 (cut size 9.00 μm, midpt 10.70 μm)” value [1, 12]?
The value was 0.011.

What about the “Fraction, Stage 1 (cut size 5.80 μm, midpt 7.22 μm)” value [1, 12] of the same compound?
Its value is 0.026.

What about the “Fraction, Stage 2 (cut size 4.70 μm, midpt 5.22 μm)” value [1, 12] of the same compound?
The value was 0.006.

What about the “Fraction, Stage 3 (cut size 3.30 μm, midpt 3.94 μm)” value [1, 12] of the same compound?
The value was 0.016.

What about the “Fraction, Stage 4 (cut size 2.10 μm, midpt 2.63 μm)” value [1, 12] of the same compound?
The value was 0.066.

What about the “Fraction, Stage 6 (cut size 0.70 μm, midpt 0.88 μm)” value [1, 12] of the same compound?
The value was 0.207.

And the “Fraction, Stage 7 (cut size 0.40 μm, midpt 0.53 μm)” value [1, 12]?
Its value is 0.211.

And the “Fraction, Tee Piece” value [1, 12]?
The value was 0.016.

And the “Fraction, Throat (USP)” value [1, 12]?
Its value is 0.001.

And the “differences in spirometry between heliox and oxygen albuterol nebulization” value (asthma patients)?
The value was “no differences in spirometry between heliox and oxygen albuterol nebulization were detected”.

What about the “differences in other vital signs or pulse oximetry, heliox vs control” value ([2]; MAP, RR, SpO2, at any point during the study) of the same compound?
Its value is “no other significant differences in any vital signs or in pulse oximetry between the groups”.

What about the “% change HR post neb 1” value ([2]; control (oxygen)) of the same compound?
Its value is −8.7 ± 7.4%.

What about the “% change HR post neb 2” value ([2]; control (oxygen)) of the same compound?
Its value is −4.6 ± 8.7%.

What about the “% change HR post neb 3” value ([2]; control (oxygen)) of the same compound?
Its value is −2.7 ± 12.7%.

What about the Hospital admission rate ([2]; control group (oxygen)) of the same compound?
Its Hospital admission rate is 6 of 22.

And the Hospital admission rate ([2]; heliox group)?
Its Hospital admission rate is 6 of 23.

What about the “% change HR post neb 1” value ([2]; heliox, P 0.01 vs control) of the same compound?
The value was −0.9 ± 7.8%.

And the “% change HR post neb 3” value ([2]; heliox, P 0.01 vs control)?
The value was 5.6 ± 12.0%.

And the “% change HR post neb 2” value ([2]; heliox, P 0.08 vs control)?
The value was 1.0 ± 11.3%.

From US20040234610A1, “Medical device and method for inhalation of aerosolized drug with heliox” (priority 2001, published 2004)
